Values of other authors, collected in patent US8999405B1 (priority 2013, dated 2015).

Columns and labels:
[1] = alkaline nitrogenous base of nicotine

CN1CCC[C@H]1c1cccnc1 [nicotine I, 3-(1-methyl-2-pyrrolidinyl) pyridine]
pKa [1]: ~8.5

CN1CCC[C@H]1c1cccnc1.O=C(O)c1ccccc1C(=O)O [Phthalic]
Solubility Alcohol (alcohol): soluble | Solubility Other (other solvent, named in the cell): insoluble: ether | Solubility Water (water): soluble
